# Test results: patent US20080274522A1, “METHOD FOR THE PRODUCTION OF 2-BUTANONE” (priority 2007, published 2008)
# Experiments:
# E. coli strain BW25113 = test: Survival of E. coli in MEK shock; type: cell-based, Escherichia coli; conditions: for % Survival at 28° C. / % Survival at 37° C.: 30 min, average of duplicate experiments
# Method: Survival of MEK shock was tested at exposure temperatures of 28° C. or 37° C.
# [1] = tested on: Lactobacillus plantarum PN0512; test: Growth of L. plantarum PN0512 in the presence of butanols at different temperatures (OD600); type: cell-based; design: key to Growth of L. plantarum PN0512 in the presence of 1-butanol / Growth of L. plantarum PN0512 in the presence of isobutanol / Growth of L. plantarum PN0512 in the presence of 2-butanol: +: growth observed as an increase in OD600.; −: no growth observed, i.e. no change in OD600
# Method: Tolerance levels of bacterial strain Lactobacillus plantarum PN0512 (ATCC # PTA-7727) were determined at 25° C., 30° C. and 37° C. as follows. The strain was cultured in S30L medium (i.e., 10 mM ammonium sulfate, 5 mM potassium phosphate buffer, pH 7.0, 50 mM MOPS, pH 7.0, 2 mM MgCl2, 0.7 mM CaCl2, 50 μM MnCl2, 1 μM FeCl3, 1 μM ZnCl2, 1.72 μM CuCl2, 2.53 μM COCl2, 2.42 μM Na2MoO4, 2 μM thiamine hydrochloride, 10 mM glucose, and 0.2% yeast extract). An overnight culture in the absence of any test compound was started in 15 mL of the S30L medium in a 150 mL flask, with incubation at 37° C. in a shaking water bath. The next morning, the overnight culture was diluted into three 500 mL flasks containing 150 mL of fresh medium to an initial OD600 of about 0.08. Each flask was incubated in a shaking water bath, one each at 25° C., 30° C. and 37° C. Each large culture was allowed to acclimate at the test temperature for at least 0.5 h. […] Growth was followed by measuring OD600 for six hours after addition of the compounds.
compound,measurement,setting,value
"CCC(C)=O [MEK, 2-butanone]",Concentration with full survival,E. coli strain BW25113; 28° C.,6 % w/v
same,Concentration with full survival,E. coli strain BW25113; 37° C.,4 % w/v
same,Concentration with no survival,E. coli strain BW25113; 37° C.,6 % w/v
same,% Survival at 28° C.,E. coli strain BW25113; MEK 4 % w/v,100%
same,% Survival at 37° C.,E. coli strain BW25113; MEK 4 % w/v,100%
same,% Survival at 28° C.,E. coli strain BW25113; MEK 6 % w/v,100%
same,% Survival at 37° C.,E. coli strain BW25113; MEK 6 % w/v,0%
same,% Survival at 28° C.,E. coli strain BW25113; MEK 8 % w/v,0.002%
same,% Survival at 37° C.,E. coli strain BW25113; MEK 8 % w/v,0%
CC(C)CO [isobutanol],Growth of L. plantarum PN0512 in the presence of isobutanol,"[1]; 0.5 % w/v, 37° C.",+
same,Growth of L. plantarum PN0512 in the presence of isobutanol,"[1]; 1.0 % w/v, 37° C.",+
same,Growth of L. plantarum PN0512 in the presence of isobutanol,"[1]; 1.5 % w/v, 25° C.",+
same,Growth of L. plantarum PN0512 in the presence of isobutanol,"[1]; 1.5 % w/v, 30° C.",+
same,Growth of L. plantarum PN0512 in the presence of isobutanol,"[1]; 1.5 % w/v, 37° C.",+
same,Growth of L. plantarum PN0512 in the presence of isobutanol,"[1]; 1.6 % w/v, 37° C.",+
same,Growth of L. plantarum PN0512 in the presence of isobutanol,"[1]; 1.8 % w/v, 37° C.",+
same,Growth of L. plantarum PN0512 in the presence of isobutanol,"[1]; 2.0 % w/v, 25° C.",+
same,Growth of L. plantarum PN0512 in the presence of isobutanol,"[1]; 2.0 % w/v, 30° C.",+
same,Growth of L. plantarum PN0512 in the presence of isobutanol,"[1]; 2.0 % w/v, 37° C.",+
same,Growth of L. plantarum PN0512 in the presence of isobutanol,"[1]; 2.1 % w/v, 37° C.",+
same,Growth of L. plantarum PN0512 in the presence of isobutanol,"[1]; 2.3 % w/v, 37° C.",+
same,Growth of L. plantarum PN0512 in the presence of isobutanol,"[1]; 2.4 % w/v, 25° C.",+
same,Growth of L. plantarum PN0512 in the presence of isobutanol,"[1]; 2.4 % w/v, 30° C.",+
same,Growth of L. plantarum PN0512 in the presence of isobutanol,"[1]; 2.4 % w/v, 37° C.",+
same,Growth of L. plantarum PN0512 in the presence of isobutanol,"[1]; 2.7 % w/v, 25° C.",+
same,Growth of L. plantarum PN0512 in the presence of isobutanol,"[1]; 2.7 % w/v, 30° C.",+
same,Growth of L. plantarum PN0512 in the presence of isobutanol,"[1]; 2.7 % w/v, 37° C.",+
same,Growth of L. plantarum PN0512 in the presence of isobutanol,"[1]; 2.9 % w/v, 25° C.",+
same,Growth of L. plantarum PN0512 in the presence of isobutanol,"[1]; 2.9 % w/v, 30° C.",+
same,Growth of L. plantarum PN0512 in the presence of isobutanol,"[1]; 2.9 % w/v, 37° C.",+
same,Growth of L. plantarum PN0512 in the presence of isobutanol,"[1]; 3.1 % w/v, 25° C.",+
same,Growth of L. plantarum PN0512 in the presence of isobutanol,"[1]; 3.1 % w/v, 30° C.",+
same,Growth of L. plantarum PN0512 in the presence of isobutanol,"[1]; 3.1 % w/v, 37° C.",+
same,Growth of L. plantarum PN0512 in the presence of isobutanol,"[1]; 3.3 % w/v, 25° C.",+
same,Growth of L. plantarum PN0512 in the presence of isobutanol,"[1]; 3.3 % w/v, 30° C.",−^2
same,Growth of L. plantarum PN0512 in the presence of isobutanol,"[1]; 3.4 % w/v, 37° C.",−
same,Growth of L. plantarum PN0512 in the presence of isobutanol,"[1]; 3.6 % w/v, 25° C.",−
same,Growth of L. plantarum PN0512 in the presence of isobutanol,"[1]; 3.8 % w/v, 37° C.",−
same,Growth of L. plantarum PN0512 in the presence of isobutanol,"[1]; 4.3 % w/v, 37° C.",−
same,Concentration in which growth was observed,[1]; 25° C.,3.5%
same,Concentration in which growth was not observed,[1]; 30° C.,3.3%
same,Concentration in which growth was observed,[1]; 30° C.,3.1%
same,Concentration in which growth was not observed,[1]; 37° C.,3.4%
same,Concentration in which growth was observed,[1]; 37° C.,3.1%
same,Growth of L. plantarum PN0512 in the presence of isobutanol,"[1]; […] w/v, 25° C.",+
same,Growth of L. plantarum PN0512 in the presence of isobutanol,"[1]; […] w/v, 37° C.",+
CCC(C)O (stereo not drawn) [2-butanol],Growth of L. plantarum PN0512 in the presence of 2-butanol,"[1]; 1.8 % w/v, 37° C.",+
same,Growth of L. plantarum PN0512 in the presence of 2-butanol,"[1]; 2.1 % w/v, 37° C.",+
same,Growth of L. plantarum PN0512 in the presence of 2-butanol,"[1]; 2.9 % w/v, 25° C.",+
same,Growth of L. plantarum PN0512 in the presence of 2-butanol,"[1]; 2.9 % w/v, 30° C.",+
same,Growth of L. plantarum PN0512 in the presence of 2-butanol,"[1]; 2.9 % w/v, 37° C.",+
same,Growth of L. plantarum PN0512 in the presence of 2-butanol,"[1]; 3.1 % w/v, 37° C.",+
same,Growth of L. plantarum PN0512 in the presence of 2-butanol,"[1]; 3.6 % w/v, 37° C.",+
same,Growth of L. plantarum PN0512 in the presence of 2-butanol,"[1]; 3.8 % w/v, 25° C.",+
same,Growth of L. plantarum PN0512 in the presence of 2-butanol,"[1]; 3.8 % w/v, 30° C.",+
same,Growth of L. plantarum PN0512 in the presence of 2-butanol,"[1]; 3.8 % w/v, 37° C.",+
same,Growth of L. plantarum PN0512 in the presence of 2-butanol,"[1]; 4.0 % w/v, 30° C.",+
same,Growth of L. plantarum PN0512 in the presence of 2-butanol,"[1]; 4.3 % w/v, 25° C.",+
same,Growth of L. plantarum PN0512 in the presence of 2-butanol,"[1]; 4.3 % w/v, 30° C.",+
same,Growth of L. plantarum PN0512 in the presence of 2-butanol,"[1]; 4.3 % w/v, 37° C.",+
same,Growth of L. plantarum PN0512 in the presence of 2-butanol,"[1]; 4.7 % w/v, 25° C.",+
same,Growth of L. plantarum PN0512 in the presence of 2-butanol,"[1]; 4.7 % w/v, 30° C.",+
same,Growth of L. plantarum PN0512 in the presence of 2-butanol,"[1]; 4.7 % w/v, 37° C.",−
same,Growth of L. plantarum PN0512 in the presence of 2-butanol,"[1]; 4.9 % w/v, 25° C.",+
same,Growth of L. plantarum PN0512 in the presence of 2-butanol,"[1]; 4.9 % w/v, 30° C.",−
same,Growth of L. plantarum PN0512 in the presence of 2-butanol,"[1]; 5.2 % w/v, 25° C.",+
same,Growth of L. plantarum PN0512 in the presence of 2-butanol,"[1]; 5.2 % w/v, 37° C.",−
same,Growth of L. plantarum PN0512 in the presence of 2-butanol,"[1]; 5.6 % w/v, 25° C.",−
same,Growth of L. plantarum PN0512 in the presence of 2-butanol,"[1]; 5.6 % w/v, 37° C.",−
same,Growth of L. plantarum PN0512 in the presence of 2-butanol,"[1]; 6.0 % w/v, 37° C.",−
same,Growth of L. plantarum PN0512 in the presence of 2-butanol,"[1]; 6.4 % w/v, 37° C.",−
same,Growth of L. plantarum PN0512 in the presence of 2-butanol,"[1]; 7.3 % w/v, 37° C.",−
same,Concentration in which growth was observed,[1]; 25° C.,5.2%
same,Concentration in which growth was not observed,[1]; 30° C.,4.9%
same,Concentration in which growth was observed,[1]; 30° C.,4.7%
same,Concentration in which growth was not observed,[1]; 37° C.,4.5%
same,Concentration in which growth was observed,[1]; 37° C.,4.3%
same,Growth of L. plantarum PN0512 in the presence of 2-butanol,"[1]; […] w/v, 30° C.",+
